In PubChem BioAssay AID330 (DTP/NCI, 2004):
Several values for one entry are separate records, joined by “and”; a condition that tells them apart may be missing. Equal entries are not always repeated. Inconclusive results and toxic doses are left out.

Test system: P388 leukemia ip, CD2F1 mice, survival T/C
Test: NCI In Vivo Anticancer Drug Screen. Data for tumor model P388 Leukemia (intraperitoneal) in CD2F1 (CDF1) mice
Details: endpoint: median survival time, higher = longer survival
Outline: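 Mice carrying the transplanted tumor received test compound or vehicle. Survival was recorded in each group, and the value is the treated-group measurement divided by that of the vehicle-treated control group.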

[1] = dose: 100.0 mg/kg/injection, schedule: Q04DX003 (ip), vehicle: Klucel (hydroxypropylcellulose) (HPC)
[2] = dose: 200.0 mg/kg/injection, schedule: Q04DX003 (ip), vehicle: Klucel (hydroxypropylcellulose) (HPC)
[3] = dose: 400.0 mg/kg/injection, schedule: Q04DX003 (ip), vehicle: Klucel (hydroxypropylcellulose) (HPC)
[4] = dose: 60.0 mg/kg/injection, schedule: Q01DX005 (ip), vehicle: saline with Tween-80
[5] = dose: 120.0 mg/kg/injection, schedule: Q01DX005 (ip), vehicle: saline with Tween-80
[6] = dose: 240.0 mg/kg/injection, schedule: Q01DX005 (ip), vehicle: saline with Tween-80
[7] = dose: 100.0 mg/kg/injection, schedule: Q04DX003 (ip), vehicle: saline with Tween-80
[8] = dose: 200.0 mg/kg/injection, schedule: Q04DX003 (ip), vehicle: saline with Tween-80
[9] = dose: 50.0 mg/kg/injection, schedule: Q01DX009 (ip), vehicle: saline
[10] = dose: 100.0 mg/kg/injection, schedule: Q01DX009 (ip), vehicle: saline
[11] = dose: 200.0 mg/kg/injection, schedule: Q01DX009 (ip), vehicle: saline
[12] = dose: 50.0 mg/kg/injection, schedule: Q01DX009 (ip), vehicle: Klucel (hydroxypropylcellulose) (HPC)
[13] = dose: 100.0 mg/kg/injection, schedule: Q01DX009 (ip), vehicle: Klucel (hydroxypropylcellulose) (HPC)
[14] = dose: 200.0 mg/kg/injection, schedule: Q01DX009 (ip), vehicle: Klucel (hydroxypropylcellulose) (HPC)

`COc1cc2c(cc1OC)C1CC(=O)C(C3(O)C(=O)Nc4ccccc43)CN1CC2` (centres undefined) was tested. Which T/C [1] did it give?
Its T/C is 99 % of control.

And the T/C [2]?
The T/C was 99 % of control.

What about the T/C [3] of the same compound?
The T/C was 112 % of control.

What does the source list for `CC1(C)OCC(C2OC3OC(C)(C)OC3C2N=O)O1` (centres undefined)?
T/C (dose: 94.5 mg/kg/injection, schedule: Q04DX002 (ip), vehicle: Klucel (hydroxypropylcellulose) (HPC)): 103 % of control; T/C (dose: 189.0 mg/kg/injection, schedule: Q04DX002 (ip), vehicle: Klucel (hydroxypropylcellulose) (HPC)): 96 % of control; T/C (dose: 378.0 mg/kg/injection, schedule: Q04DX002 (ip), vehicle: Klucel (hydroxypropylcellulose) (HPC)): 90 % of control

Which results are given for `N=C(N)c1ccc2cc(C(=N)N)[nH]c2c1`?
T/C (dose: 6.25 mg/kg/injection, schedule: Q04DX003 (ip), vehicle: saline): 100 % of control; T/C (dose: 12.5 mg/kg/injection, schedule: Q04DX003 (ip), vehicle: saline): 100 % of control; T/C (dose: 25.0 mg/kg/injection, schedule: Q04DX003 (ip), vehicle: saline): 107 % of control

How did the T/C (dose: 0.1 mg/kg/injection, schedule: Q01DX009 (ip), vehicle: other) turn out when `Cc1ccc(NC(=O)N(CCCl)N=O)cc1NC(=O)N(CCCl)N=O` was run?
Its T/C is 120 % of control.

What about the T/C (dose: 0.1 mg/kg/injection, schedule: Q01DX009 (ip), vehicle: saline + alcohol) of the same compound?
Its T/C is 116 % of control.

And the T/C (dose: 0.25 mg/kg/injection, schedule: Q04DX003 (ip), vehicle: other)?
The T/C was 113 % of control.

And the T/C (dose: 0.5 mg/kg/injection, schedule: Q04DX003 (ip), vehicle: other)?
Its T/C is 118 % of control.

What about the T/C (dose: 0.75 mg/kg/injection, schedule: Q01DX009 (ip), vehicle: other) of the same compound?
The T/C was 161 % of control.

What about the T/C (dose: 1.0 mg/kg/injection, schedule: Q01DX009 (ip), vehicle: other) of the same compound?
The T/C was 159 % of control.

And the T/C (dose: 1.0 mg/kg/injection, schedule: Q04DX003 (ip), vehicle: other)?
The T/C was 113 % of control.

What about the T/C (dose: 1.32 mg/kg/injection, schedule: Q01DX009 (ip), vehicle: saline with Tween-80) of the same compound?
Its T/C is 154 % of control.

What about the T/C (dose: 1.5 mg/kg/injection, schedule: Q01DX009 (ip), vehicle: other) of the same compound?
Its T/C is 175 % of control.

And the T/C (dose: 2.0 mg/kg/injection, schedule: Q01DX009 (ip), vehicle: saline with Tween-80)?
The T/C was 181 % of control.

And the T/C (dose: 2.0 mg/kg/injection, schedule: Q04DX003 (ip), vehicle: other)?
The T/C was 154 % of control.

And the T/C (dose: 3.0 mg/kg/injection, schedule: Q01DX009 (ip), vehicle: other)?
Its T/C is 221 % of control.

What about the T/C (dose: 3.0 mg/kg/injection, schedule: Q01DX009 (ip), vehicle: saline with Tween-80) of the same compound?
Its T/C is 155 % of control and 209 % of control.

And the T/C (dose: 3.13 mg/kg/injection, schedule: Q01DX009 (ip), vehicle: other)?
The T/C was 177 % of control.

And the T/C (dose: 4.5 mg/kg/injection, schedule: Q01DX009 (ip), vehicle: saline with Tween-80)?
Its T/C is 245 % of control.

And the T/C (dose: 6.25 mg/kg/injection, schedule: Q01DX009 (ip), vehicle: other)?
The T/C was 209 % of control.

And the T/C (dose: 12.5 mg/kg/injection, schedule: Q01DX009 (ip), vehicle: other)?
Its T/C is 222 % of control.

`O=C(Oc1ccc[nH]c1=O)c1ccccc1` was tested. Which T/C (dose: 37.5 mg/kg/injection, schedule: Q01DX009 (ip), vehicle: saline) did it give?
Its T/C is 108 % of control and 98 % of control.

And the T/C (dose: 75.0 mg/kg/injection, schedule: Q01DX009 (ip), vehicle: saline)?
The T/C was 101 % of control and 105 % of control.

And the T/C (dose: 150.0 mg/kg/injection, schedule: Q01DX009 (ip), vehicle: saline)?
The T/C was 107 % of control.

What about the T/C (dose: 300.0 mg/kg/injection, schedule: Q01DX009 (ip), vehicle: saline) of the same compound?
Its T/C is 101 % of control and 110 % of control.

And the T/C (dose: 600.0 mg/kg/injection, schedule: Q01DX009 (ip), vehicle: saline)?
Its T/C is 101 % of control and 107 % of control.

Which results are given for `Cc1ccc(NC(=O)Oc2ccc(C#N)cc2)c(C)c1`?
T/C [4]: 92 % of control; T/C [5]: 95 % of control; T/C [6]: 101 % of control

For `Cc1ccc(S(=O)(=O)Nc2ccc3ncccc3c2)cc1`, which T/C [7] is on record?
The T/C was 99 % of control.

And the T/C [8]?
The T/C was 98 % of control.

Which results are given for `Cc1noc(C)c1C(=O)CCCCC(=O)O`?
T/C [4]: 102 % of control; T/C [5]: 95 % of control; T/C [6]: 104 % of control

What does the source list for `CCCCCCCCCCCCOC(=O)CN=C=O`?
T/C [9]: 100 % of control and 101 % of control; T/C [10]: 100 % of control; T/C [11]: 107 % of control and 89 % of control

For `O=C1Nc2ccccc2/C1=N/N=C/c1ccc(Cl)cc1Cl`, which T/C [12] is on record?
Its T/C is 100 % of control.

And the T/C [13]?
Its T/C is 88 % of control and 90 % of control.

What about the T/C [14] of the same compound?
The T/C was 100 % of control and 98 % of control.

What does the source list for `CCOP(=O)(O)CP(=O)(O)OCC.CCOP(=O)(O)CP(=O)(O)OCC.[Cr]`?
T/C (dose: 50.0 mg/kg/injection, schedule: Q04DX003 (ip), vehicle: saline with Tween-80): 102 % of control; T/C [7]: 98 % of control; T/C [8]: 99 % of control

`O=C1NC(c2cccc(OCc3ccccc3)c2)Nc2ccccc21` (centres undefined) was tested. Which T/C (dose: 3.13 mg/kg/injection, schedule: Q01DX009 (ip), vehicle: Klucel (hydroxypropylcellulose) (HPC)) did it give?
Its T/C is 94 % of control.

What about the T/C (dose: 6.25 mg/kg/injection, schedule: Q01DX009 (ip), vehicle: Klucel (hydroxypropylcellulose) (HPC)) of the same compound?
The T/C was 107 % of control.

What about the T/C (dose: 12.5 mg/kg/injection, schedule: Q01DX009 (ip), vehicle: Klucel (hydroxypropylcellulose) (HPC)) of the same compound?
Its T/C is 102 % of control.

What about the T/C (dose: 25.0 mg/kg/injection, schedule: Q01DX009 (ip), vehicle: Klucel (hydroxypropylcellulose) (HPC)) of the same compound?
The T/C was 100 % of control.

And the T/C [12]?
The T/C was 109 % of control.

And the T/C [13]?
The T/C was 115 % of control.

What about the T/C [14] of the same compound?
The T/C was 102 % of control.

For `CCOc1ccc(NC(=O)CC(C)O)cc1` (centres undefined), which T/C (dose: 50.0 mg/kg/injection, schedule: Q01DX009 (ip), vehicle: saline with Tween-80) is on record?
The T/C was 94 % of control.

What about the T/C (dose: 100.0 mg/kg/injection, schedule: Q01DX009 (ip), vehicle: saline with Tween-80) of the same compound?
The T/C was 93 % of control.

What about the T/C (dose: 200.0 mg/kg/injection, schedule: Q01DX009 (ip), vehicle: saline with Tween-80) of the same compound?
The T/C was 96 % of control.

With `O=C(O)CCCCC=C(c1ccccc1)c1ccccc1` as the compound, how does the T/C (dose: 50.0 mg/kg/injection, schedule: Q01DX005 (ip), vehicle: saline + Tween-80 + alcohol) read?
The T/C was 101 % of control.

What about the T/C (dose: 100.0 mg/kg/injection, schedule: Q01DX005 (ip), vehicle: saline + Tween-80 + alcohol) of the same compound?
Its T/C is 102 % of control.

And the T/C (dose: 200.0 mg/kg/injection, schedule: Q01DX005 (ip), vehicle: saline + Tween-80 + alcohol)?
Its T/C is 101 % of control.

How did the T/C (dose: 50.0 mg/kg/injection, schedule: Q01DX005 (ip), vehicle: Klucel (hydroxypropylcellulose) (HPC)) turn out when `CC1CN2CC(C)O[Si](CC[Si](C)(C)C)(O1)OC(C)C2` (centres undefined) was run?
Its T/C is 104 % of control.

And the T/C (dose: 100.0 mg/kg/injection, schedule: Q01DX005 (ip), vehicle: Klucel (hydroxypropylcellulose) (HPC))?
The T/C was 90 % of control.

For `Cc1cc(=O)c2c(=O)n(-c3ccccc3)[nH]c2[nH]1`, which T/C [4] is on record?
Its T/C is 111 % of control.

And the T/C [5]?
Its T/C is 109 % of control.

And the T/C [6]?
Its T/C is 100 % of control.

What does the source list for `O=c1cncc[nH]1`?
T/C (dose: 12.5 mg/kg/injection, schedule: Q01DX009 (ip), vehicle: saline): 105 % of control; T/C (dose: 25.0 mg/kg/injection, schedule: Q01DX009 (ip), vehicle: saline): 108 % of control; T/C [9]: 108 % of control; T/C [10]: 109 % of control; T/C [11]: 96 % of control

How did the T/C (dose: 12.5 mg/kg/injection, schedule: Q04DX002 (ip), vehicle: saline with Tween-80) turn out when `COC1/C=C\C=C(/C)C(=O)NC2=CC(=O)C(NC3CC3)=C(CC(C)CC(OC)C(O)C(C)/C=C(/C)C1OC(N)=O)C2=O` (centres undefined) was run?
Its T/C is 107 % of control.

And the T/C (dose: 18.75 mg/kg/injection, schedule: Q04DX002 (ip), vehicle: saline with Tween-80)?
Its T/C is 108 % of control.

What about the T/C (dose: 25.0 mg/kg/injection, schedule: Q04DX002 (ip), vehicle: saline with Tween-80) of the same compound?
Its T/C is 107 % of control and 113 % of control.

And the T/C (dose: 37.5 mg/kg/injection, schedule: Q04DX002 (ip), vehicle: saline with Tween-80)?
Its T/C is 108 % of control.

What about the T/C (dose: 50.0 mg/kg/injection, schedule: Q04DX002 (ip), vehicle: saline with Tween-80) of the same compound?
Its T/C is 111 % of control and 113 % of control.

What about the T/C (dose: 75.0 mg/kg/injection, schedule: Q04DX002 (ip), vehicle: saline with Tween-80) of the same compound?
Its T/C is 117 % of control.

What about the T/C (dose: 100.0 mg/kg/injection, schedule: Q04DX002 (ip), vehicle: saline with Tween-80) of the same compound?
The T/C was 120 % of control and 88 % of control.

What does the source list for `O=C1CC23c4ccccc4N4C(=O)CC5OCC=C6CN1C2CC6C5C43` (centres undefined)?
T/C [4]: 101 % of control; T/C [5]: 92 % of control; T/C [6]: 92 % of control

`Cn1c(=O)c2c(N=NC(N)=S)c(O)[nH]c2n(C)c1=O` was tested. Which T/C [1] did it give?
Its T/C is 100 % of control.

And the T/C [2]?
The T/C was 108 % of control.

And the T/C [3]?
Its T/C is 96 % of control.
